Results: PubChem BioAssay (NCI)
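Briefly, cells in 96-well plates were exposed to five compound concentrations for 48 h, and endpoints were estimated by linear interpolation. Abbreviation: GI50, concentration required for 50% inhibition of growth. TGI: concentration producing complete growth inhibition.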

Experiments:
Assay in all cases: NCI-60 cell line screen, 48 h
SN12C renal = system: SN12C renal
786-0 renal = system: 786-0 renal
NCI-H460 lung = system: NCI-H460 lung
COLO 205 colon = system: COLO 205 colon
HL-60(TB) leukemia = system: HL-60(TB) leukemia
RPMI-8226 leukemia = system: RPMI-8226 leukemia
A549 NSCLC = system: A549 NSCLC
SF-539 CNS = system: SF-539 CNS
K-562 leukemia = system: K-562 leukemia
OVCAR-5 ovarian = system: OVCAR-5 ovarian
SK-MEL-2 melanoma = system: SK-MEL-2 melanoma
BT-549 breast = system: BT-549 breast
NCI-H226 lung = system: NCI-H226 lung
MOLT-4 leukemia = system: MOLT-4 leukemia
SK-OV-3 ovarian = system: SK-OV-3 ovarian
EKVX NSCLC = system: EKVX NSCLC
KM12 colon = system: KM12 colon
UACC-62 melanoma = system: UACC-62 melanoma
SNB-19 CNS = system: SNB-19 CNS
T-47D breast = system: T-47D breast
SK-MEL-5 melanoma = system: SK-MEL-5 melanoma
SW-620 colon = system: SW-620 colon
UO-31 renal = system: UO-31 renal
TK-10 renal = system: TK-10 renal
HOP-62 NSCLC = system: HOP-62 NSCLC
SF-268 CNS = system: SF-268 CNS
HCT-15 colon = system: HCT-15 colon
SF-295 CNS = system: SF-295 CNS
MDA-MB-231 breast = system: MDA-MB-231 breast
DU-145 prostate = system: DU-145 prostate
CCRF-CEM leukemia = system: CCRF-CEM leukemia
OVCAR-4 ovarian = system: OVCAR-4 ovarian
SNB-75 CNS = system: SNB-75 CNS
MDA-MB-435 = system: MDA-MB-435
M14 melanoma = system: M14 melanoma
OVCAR-8 ovarian = system: OVCAR-8 ovarian
PC-3 prostate = system: PC-3 prostate
HOP-92 NSCLC = system: HOP-92 NSCLC
OVCAR-3 ovarian = system: OVCAR-3 ovarian
NCI-H522 lung = system: NCI-H522 lung
LOX IMVI melanoma = system: LOX IMVI melanoma
U251 CNS = system: U251 CNS
SR leukemia = system: SR leukemia
UACC-257 melanoma = system: UACC-257 melanoma
IGROV1 ovarian = system: IGROV1 ovarian
HS 578T breast = system: HS 578T breast
RXF 393 renal = system: RXF 393 renal
SK-MEL-28 melanoma = system: SK-MEL-28 melanoma
CAKI-1 renal = system: CAKI-1 renal
ACHN renal = system: ACHN renal
A498 renal = system: A498 renal
HCT-116 colon = system: HCT-116 colon

CC1=C(C(=O)Nc2ccc(Cl)c(Cl)c2)C(c2cccc(Oc3ccccc3)c2)NC(=O)N1 (stereo not drawn)
GI50 (SN12C renal): 5.28 µM | TGI (SN12C renal): 12.5 µM | GI50 (786-0 renal): 10.2 µM | TGI (786-0 renal): 20.8 µM | GI50 (NCI-H460 lung): 4.94 µM | TGI (NCI-H460 lung): 32.8 µM | GI50 (COLO 205 colon): 12.6 µM | TGI (COLO 205 colon): 35.7 µM | GI50 (HL-60(TB) leukemia): 22.8 µM | TGI (HL-60(TB) leukemia): > 50 µM | GI50 (RPMI-8226 leukemia): 13.4 µM | TGI (RPMI-8226 leukemia): > 50 µM | GI50 (A549 NSCLC): 3.94 µM | TGI (A549 NSCLC): > 50 µM | GI50 (SF-539 CNS): 6.78 µM | TGI (SF-539 CNS): 17 µM | GI50 (K-562 leukemia): 18.6 µM | TGI (K-562 leukemia): > 50 µM | GI50 (OVCAR-5 ovarian): 13.4 µM | TGI (OVCAR-5 ovarian): 33 µM | GI50 (SK-MEL-2 melanoma): 5.68 µM | TGI (SK-MEL-2 melanoma): 17.9 µM | GI50 (BT-549 breast): 4.23 µM | TGI (BT-549 breast): 14.3 µM | GI50 (NCI-H226 lung): 8.36 µM | TGI (NCI-H226 lung): 19.8 µM | GI50 (MOLT-4 leukemia): > 50 µM | TGI (MOLT-4 leukemia): > 50 µM | GI50 (SK-OV-3 ovarian): 25.5 µM | TGI (SK-OV-3 ovarian): > 50 µM | GI50 (EKVX NSCLC): 5.21 µM | TGI (EKVX NSCLC): 16.3 µM | GI50 (KM12 colon): 8.72 µM | TGI (KM12 colon): 19.7 µM | GI50 (UACC-62 melanoma): 6.27 µM | TGI (UACC-62 melanoma): 14.1 µM | GI50 (SNB-19 CNS): 20.1 µM | TGI (SNB-19 CNS): > 50 µM | GI50 (T-47D breast): 22.9 µM | TGI (T-47D breast): > 50 µM | GI50 (SK-MEL-5 melanoma): 8.07 µM | TGI (SK-MEL-5 melanoma): 17 µM | GI50 (SW-620 colon): 12.8 µM | TGI (SW-620 colon): 43.8 µM | GI50 (UO-31 renal): 4.74 µM | TGI (UO-31 renal): > 50 µM | GI50 (TK-10 renal): 20.7 µM | TGI (TK-10 renal): > 50 µM | GI50 (HOP-62 NSCLC): 14.6 µM | TGI (HOP-62 NSCLC): 26.5 µM | GI50 (SF-268 CNS): 6.65 µM | TGI (SF-268 CNS): 17.7 µM | GI50 (HCT-15 colon): 6.61 µM | TGI (HCT-15 colon): 48.2 µM | GI50 (SF-295 CNS): 5.57 µM | TGI (SF-295 CNS): 16.6 µM | GI50 (MDA-MB-231 breast): 6.15 µM | TGI (MDA-MB-231 breast): 16.3 µM | GI50 (DU-145 prostate): 6.5 µM | TGI (DU-145 prostate): 33.3 µM | GI50 (CCRF-CEM leukemia): > 50 µM | TGI (CCRF-CEM leukemia): > 50 µM | GI50 (OVCAR-4 ovarian): 11.2 µM | TGI (OVCAR-4 ovarian): > 50 µM | GI50 (SNB-75 CNS): 15.9 µM | TGI (SNB-75 CNS): > 50 µM | GI50 (MDA-MB-435): 6.33 µM | TGI (MDA-MB-435): 16.7 µM | GI50 (M14 melanoma): 17.8 µM | TGI (M14 melanoma): 31.7 µM | GI50 (OVCAR-8 ovarian): 7.67 µM | TGI (OVCAR-8 ovarian): 22 µM | GI50 (PC-3 prostate): 16.3 µM | TGI (PC-3 prostate): > 50 µM | GI50 (HOP-92 NSCLC): 24.6 µM | TGI (HOP-92 NSCLC): > 50 µM | GI50 (OVCAR-3 ovarian): 7.75 µM | TGI (OVCAR-3 ovarian): 17 µM | GI50 (NCI-H522 lung): 4.47 µM | TGI (NCI-H522 lung): 26 µM | GI50 (LOX IMVI melanoma): 4.33 µM | TGI (LOX IMVI melanoma): 13.8 µM | GI50 (U251 CNS): 5.28 µM | TGI (U251 CNS): 14.7 µM | GI50 (SR leukemia): 28.1 µM | TGI (SR leukemia): > 50 µM | GI50 (UACC-257 melanoma): 11.9 µM | TGI (UACC-257 melanoma): 42.6 µM | GI50 (IGROV1 ovarian): 5.6 µM | TGI (IGROV1 ovarian): 32.6 µM | GI50 (HS 578T breast): 6.72 µM | TGI (HS 578T breast): 22.3 µM | GI50 (RXF 393 renal): 9.61 µM | TGI (RXF 393 renal): 26.5 µM | GI50 (SK-MEL-28 melanoma): 11.1 µM | TGI (SK-MEL-28 melanoma): 33.2 µM | GI50 (CAKI-1 renal): 7.64 µM | TGI (CAKI-1 renal): 20.4 µM | GI50 (ACHN renal): 6.6 µM | TGI (ACHN renal): 17.3 µM

C[C@H]1[C@H](C)CC[C@]2(C(=O)Nc3ccc4ncccc4c3)CC[C@]3(C)C(=CC[C@@H]4[C@@]5(C)CCCNC(C)(C)[C@@H]5CC[C@]43C)[C@H]12
GI50 (A498 renal): 1.56 µM | TGI (A498 renal): 2.96 µM | GI50 (NCI-H460 lung): 1.94 µM | TGI (NCI-H460 lung): 3.82 µM | GI50 (HCT-116 colon): 1.6 µM | TGI (HCT-116 colon): 3.11 µM | GI50 (SK-MEL-2 melanoma): 1.84 µM | TGI (SK-MEL-2 melanoma): 3.43 µM | GI50 (UACC-62 melanoma): 1.74 µM | TGI (UACC-62 melanoma): 3.23 µM | GI50 (SK-MEL-5 melanoma): 1.85 µM | TGI (SK-MEL-5 melanoma): 3.32 µM | GI50 (SW-620 colon): 1.8 µM | TGI (SW-620 colon): 3.37 µM | GI50 (M14 melanoma): 1.94 µM | TGI (M14 melanoma): 3.59 µM | GI50 (IGROV1 ovarian): 1.7 µM | TGI (IGROV1 ovarian): 3.37 µM
